Laboratory results from patent publication US20150001139A1, “REAL-TIME INTEGRITY MONITORING OF SEPARATION MEMBRANES” (THE REGENTS OF THE UNIVERSITY OF CALIFORNIA, priority 2013, published 2015).
Converted amounts (≈) assume the structure as drawn.

Assays:
[1] = cited from earlier work
[2] = Preliminary evaluation of uranine fluorescence stability (pH, chlorine); type: physicochemical
Method: Fluorescent molecular markers are subjected to screening criteria, including low toxicity, low background fluorescence in water, economic feasibility for long term use, and commercial availability. Screening criteria are also based on experiments, including stability with light exposure, strong fluorescent intensity, stability under various pH conditions, and stability under chlorine exposure.
Uranine stock solutions were prepared from reagent-grade uranine powder (Fisher Scientific, Pittsburgh, Pa.) dissolved in ultra-pure deionized water from a Milli-Q water purification system (Millipore Corp., San Jose, Calif.). RO desalting runs were conducted using low salinity potable tap water (average reported total dissolved solids (TDS) of about 265 mg/l, TOC of about 1.7 mg/l, and total hardness of about 113 mg/l as CaCO3).

stability of fluorescence intensity with pH ([2]; typical RO process pH operating range, pH of about 6-8) | Compound | Solubility in Water [1] | chlorine tolerance of fluorescence ([2]; about 1-4 ppm of free chlorine)
 | O=C(O)c1c(Cl)c(Cl)c(Cl)c(Cl)c1-c1c2cc(I)c(=O)c(I)c-2oc2c(I)c(O)c(I)cc12 [Bengal rose] | 100 mg/mL (≈ 103 mM) | 
 | O=C(O)c1ccccc1-c1c2cc([N+](=O)[O-])c(=O)c(Br)c-2oc2c(Br)c(O)c([N+](=O)[O-])cc12 [Eosin B] | 40 mg/mL (≈ 69 mM) | 
 | Cc1ccc(N2C(=O)c3cccc4c(N)c(S(=O)(=O)[O-])cc(c34)C2=O)cc1.[Na+] [Lissamine FF] | 40 mg/mL | 
 | O=S(=O)([O-])c1cc(O)c2ccc3c(S(=O)(=O)[O-])cc(S(=O)(=O)[O-])c4ccc1c2c34.[Na+].[Na+].[Na+] [Pyranine] | 178 mg/mL | 
 | CCN(CC)c1ccc2c(-c3ccc(S(=O)(=O)O)cc3S(=O)(=O)[O-])c3ccc(=[N+](CC)CC)cc-3oc2c1 [Sulforhodamine B] | 10 mg/mL (≈ 17.9 mM) | 
 | O=S(=O)([O-])c1ccccc1C=Cc1ccc(-c2ccc(C=Cc3ccccc3S(=O)(=O)[O-])cc2)cc1.[Na+].[Na+] [Tinopal CBS-X] | 25 mg/mL | 
stable fluorescence intensity | O=C([O-])c1ccccc1-c1c2ccc(=O)cc-2oc2cc([O-])ccc12.[Na+].[Na+] [Uranine] |  | high level of chlorine tolerance
 | Amidorhodamine G | very soluble | 
 | Erythrosine | 20 mg/mL | 
 | Lanaperl fast yellow | very soluble | 
 | Sodium naphtionate | 240 mg/mL | 
